The values below come from patent US12590950B2, “Methods for predicting ER-mediated DNA damage” (UNIVERSITY OF MASSACHUSETTS, priority 2019, dated 2026).

SMILES strings stand for the structures.

Data set [1] has as its system parental 76N-tert cell line. As to the kind of experiment: S9.6 immunostaining (R-loops) in parental 76N-tert cells without ERα. The format is cell-based, human. To be noted: no ERα. Here is the method:
Generation of 76N-Tert-ESR1 cells: The 76N-Tert cell line, a human mammary epithelial cell line immortalized with expression of human telomerase reverse transcriptase (TERT) was provided (35). These cells were grown in F-media (250 mL DMEM (-pyruvate) (Gibco #11965-092), 250 mL Ham's F12 (Gibco #11765-054), 5% FBS, 250 ng/mL hydrocortisone (Sigma #H4001), 10 ng/mL human epidermal growth factor (Tonbo Biosciences #21-8356-U100), 8.6 ng/mL cholera toxin vibrio (Millipore Sigma #227035), 1 μg/mL human insulin solution, and 1× antibiotic-antimycotic and passaged every 2-3 days.
Immunostaining: Cells were grown in clearing media for 48 h and plated on 20 mm coverslip in 12 well plates with a density of 2×10^5 cells/well. After 24 h of growth, cells were treated with 10 nM E2, 1 or 5 μM BP3, and 1 or 5 μM PP with or without 1 μM fulvestrant. γH2AX/ERα: Cells were fixed in ice-cold methanol (100%) for 10 mins and quenched with 0.1 M Glycine for 15 mins. Cells were washed with 1×PBS, blocked in 2% BSA/PBS with 0.1% Triton-X 100 for 1 hr at room temperature (RT), incubated overnight with γH2AX antibody (Cell Signaling #9718 S) or ERα antibody (Santa Cruz Biotechnology #sc-8002) at 4° C. and 1 hour with secondary antibody. S9.6: Cells were fixed in ice-cold 100% methanol for 10 min at −20° C., permeabilized in 100% acetone for 1 min at RT, blocked for 30 min in saline sodium citrate pH 7 (SSC, 4×), 3% BSA, 0.1% Triton-X and incubated with S9.6 (Kerafast #ENH001) 2 hr at RT followed by 1 h with secondary antibody. If indicated, slides were treated with RNase H (NEB #M0297L) for 4 hr at 37° C. prior to incubation with primary antibody. Stained cells were mounted with Vectashield mounting medium containing DAPI (Vector Laboratories #H-1200). Slides were imaged at 60× (immersion oil) with Nikon A1 Spectral Confocal microscope. Analysis of γH2AX and S9.6 intensity per nucleus or foci per nucleus was calculated using Nikon analysis software, where DAPI was used as a mask for the nucleus.

The subject of data set [2] is mammary epithelium. Put plainly: Acute oral exposure of ovariectomized mice: nuclear S9.6 staining of mammary epithelium. It is filed as in vivo, mouse. To be noted: 4 days, E2 250, BP3 3,000, PP 10,000 μg/kg/day. From the text: Animal Treatment: Forty mature female mice (8 weeks old) BALB/c mice were purchased from Jackson Laboratory and housed in temperature-controlled facilities with a 12-hour alternating day/night light cycle and fed LabChow 5058 ad libitum. All procedures were in accordance with the national guidelines for the care and use of animals and approved by the University of Massachusetts Amherst's Institutional Animal Care and Use Committee.
The mice were ovariectomized before treatment. Briefly, each mouse was anaesthetized with a mix of isofluorance and oxygen. The flanks were shaved, sterilized with betadine and cleaned with alcohol. An incision was made to the skin on the right flank. The underlying muscle layer was nicked to reveal a small hole through which ovary was pulled out by grasping the periovarian fat. A Serrifin clamp was used to hold the ovary. After making sure the blood vessels were constricted to prevent […], the ovary was cut from the uterine horn. The periovarian fat was restored into the peritoneum. The peritoneum was closed with one or two stiches and the skin was closed with 9 mm wound clips. The procedure was repeated on the contralateral side. The mouse was monitored for a week post-procedure and wound clips were removed after 10 days. After 1 week of recovery, the mice began an acute oral treatment via pipette with one of three different compounds prepared in tocopherol-stripped corn oil for 4 days. Each mouse was administered 1 μL of oil per gram of body weight to deliver 250 μg/kg/d E2, 3000 μg/kg/d BP3 or 10000 μg/kg/d PP or vehicle control. […]
Immunostaining of mouse mammary gland: Freshly cut […] paraffin-embedded sections were deparaffinized/rehydrated with 100% xylenes 3 times for 5 min each, 2 times with 100% ethanol for 5 min each, 95% ethanol for 3 min and 70% ethanol for 3 min. […] Analysis of S9.6 intensity per nucleus or foci per nucleus were calculated using Nikon analysis software, where DAPI was used as a mask for the nucleus. […] Positive cells were counted using ImageJ software. 1200 cells were counted to determine percent Ki67 positive.

Turning to `C[C@]12CC[C@@H]3c4ccc(O)cc4CC[C@H]3[C@@H]1CC[C@@H]2O` [E2, 17β-estradiol, reference compound], in data set [1], the “nuclear S9.6 staining” value is “low nuclear S9.6 staining”. Moreover, in data set [2], the “nuclear S9.6 staining in mammary epithelium over control treated animals” value was determined as 3.8 fold.

`COc1ccc(C(=O)c2ccccc2)c(O)c1` [BP3, 2-Hydroxy-4-methoxybenzophenone]: the “nuclear S9.6 staining” value in data set [1] is “low nuclear S9.6 staining”. For the same compound, the “nuclear S9.6 staining in mammary epithelium over control treated animals” value in data set [2] was 2.5 fold.

Regarding `CCCOC(=O)c1ccc(O)cc1` [PP, propyl parahydroxybenzoate], the “nuclear S9.6 staining” value in data set [1] was “low nuclear S9.6 staining”. For the same compound, the “nuclear S9.6 staining in mammary epithelium over control treated animals” value in data set [2] stood at 3.8 fold.
